Measurements: patent publication US20250388604A1, “Compounds and Their Use as PDE4 Activators” (Mironid Limited, priority 2022, published 2025)

Tests used:
[1] = system: m-IMCD3 cells expressing PDE4 long forms; assay: cAMP levels in PGE2-stimulated 3D m-IMCD3 cell culture media; type: cell-based; details: Mus musculus, mIMCD3, compared to 100% for (DMSO + PGE2), read-out: cAMP level (% of PGE2-stimulated); for activity at 10 µM: 10 μM test compound; for activity at 3 µM: 3 μM test compound
Description: HEK 293 and MDCK cells (Public Health England, Cell Culture Collections) were maintained in Dulbecco's Modified Eagle's Medium (DMEM) supplemented with 10% (v/v) fetal bovine serum (FBS) (Seralab), 2 mM L-glutamine and 100 U/mL penicillin streptomycin cocktail (ThermoFisher); termed complete media. Clonal HEK 293 cell lines were maintained in complete media supplemented with 0.6 mg/ml G418 (Enzo Life Sciences). Mouse inner medullary collecting duct (m-IMCD3) cells [American Type Culture Collection (ATCC)] were maintained in media consisting of DMEM/Hams F-12 50/50 Mix (DMEM F12; Corning) supplemented with penicillin streptomycin cocktail (100 U/mL) and FBS (10% v/v) (DMEM F12-10% FBS).
Activation of intracellular PDE4 long forms leads to a reduction of both intracellular cAMP and externalised cAMP (Omar et al., PNAS 116: 13320-13329, 2019). This reduction may be measured in the cell culture media supernatant of 3D cystic cell cultures, such as in the m-IMCD3 cell cyst suppression assay described in Experiment 3.
Following the completion of the m-IMCD3 cell cyst suppression assay (Experiment 3), the cAMP level in the assay media from individual or pooled assay wells was measured using a cAMP ELISA kit (Enzo Life Sciences) or a LANCE Ultra cAMP kit (PerkinElmer) according to the manufacturer's instructions.

m-IMCD3 cells = assay: Inhibition of PGE2-stimulated in vitro cyst formation in m-IMCD3 cells; type: cell-based, mouse; details: Mus musculus, mIMCD3, 144 h, mean cyst area, 100% for (DMSO + PGE2) and 0% for DMSO control, 6 days of culture; for activity at 10 µM: read-out: % Cyst area after incubation with 10 μM test compound; for activity at 3 µM: read-out: % Cyst area after incubation with 3 μM test compound
How it was run: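 Mean cyst area after 6 days, expressed relative to DMSO+PGE2 (100%) and DMSO alone (0%), from z-stack images. Mouse m-IMCD3 spheroids grew in collagen I/Matrigel gels and received PGE2 (100 nM final) with test compound (0.1% DMSO) starting 18–24 h post-plating, media refreshed at day 2 or 3.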

Compound	activity at 10 µM [1] [%]	activity at 10 µM (m-IMCD3 cells) [%]	activity at 3 µM [1] [%]	activity at 3 µM (m-IMCD3 cells) [%]
O=C(CC1CCCC1)N1CCc2nc(N3C4CCC3CNC4)sc2C1 [Example 1, 1-(2-(3,8-diazabicyclo[3.2.1]octan-8-yl)-6,7-dihydrothiazolo[5,4-c]pyridin-5(4H)-yl)-2-cyclopentylethan-1-one]	14	-5		
CC(C)(C)CC(=O)N1CCc2nc(N3C4CCC3CNC4)sc2C1 [Example 10, 1-(2-(3,8-diazabicyclo[3.2.1]octan-8-yl)-6,7-dihydrothiazolo[5,4-c]pyridin-5(4H)-yl)-3,3-dimethylbutan-1-one]	38	-3		
O=C(CC1CCCC1)N1Cc2nc(N3C4CCC3CNC4)sc2C1 [Example 66, 1-(2-(3,8-diazabicyclo[3.2.1]octan-8-yl)-4,6-dihydro-5H-pyrrolo[3,4-d]thiazol-5-yl)-2-cyclopentylethan-1-one]		-5	36	
O=C(NC1CCCC1)N1Cc2nc(N3C4CCC3CNC4)sc2C1 [Example 68, 2-(3,8-diazabicyclo[3.2.1]octan-8-yl)-N-cyclopentyl-4,6-dihydro-5H-pyrrolo[3,4-d]thiazole-5-carboxamide]		-4	19	
O=C(CC1CCCC1)N1CCc2nc(C3CCNCC3)sc2C1 [Example 118, 2-cyclopentyl-1-(2-(piperidin-4-yl)-6,7-dihydrothiazolo[5,4-c]pyridin-5(4H)-yl)ethan-1-one]		5	52	
O=C(N1CCn2nc(N3C4CCC3CNC4)cc2C1)C(F)(F)c1ccccc1 [Example 126, 1-(2-(3,8-diazabicyclo[3.2.1]octan-8-yl)-6,7-dihydropyrazolo[1,5-a]pyrazin-5(4H)-yl)-2,2-difluoro-2-phenylethan-1-one]		-10	39	
O=C(CC1CCCC1)N1CCn2nc(N3C4CCC3CNC4)cc2C1 [Example 127, 1-(2-(3,8-diazabicyclo[3.2.1]octan-8-yl)-6,7-dihydropyrazolo[1,5-a]pyrazin-5(4H)-yl)-2-cyclopentylethan-1-one]		3	42	
CC1(CC(=O)N2CCn3nc(N4C5CCC4CNC5)cc3C2)CCCC1 [Example 128, 1-(2-(3,8-diazabicyclo[3.2.1]octan-8-yl)-6,7-dihydropyrazolo[1,5-a]pyrazin-5(4H)-yl)-2-(1-methylcyclopentyl)ethan-1-one]		-2	50	
O=C([C@H](O)C1CCCC1)N1CCc2nc(N3C4CCC3CNC4)sc2C1 [Example 171, (2R)-1-(2-(3,8-diazabicyclo[3.2.1]octan-8-yl)-6,7-dihydrothiazolo[5,4-c]pyridin-5(4H)-yl)-2-cyclopentyl-2-hydroxyethan-1-one]			56	6
O=C(C1COc2ccccc21)N1CCc2nc(N3C4CCC3CNC4)sc2C1 (stereo not shown) [Example 184, (2-(3,8-diazabicyclo[3.2.1]octan-8-yl)-6,7-dihydrothiazolo[5,4-c]pyridin-5(4H)-yl)(2,3-dihydrobenzofuran-3-yl)methanone]			58	15
O=C(c1ccc(C(F)(F)F)nc1)N1CCc2nc(N3C4CCC3CNC4)sc2C1 [Example 241, (2-(3,8-diazabicyclo[3.2.1]octan-8-yl)-6,7-dihydrothiazolo[5,4-c]pyridin-5(4H)-yl)(6-(trifluoromethyl)pyridin-3-yl)methanone]			43	4
O=C(OC1CCCC1)N1CCc2nc(N3C4CCC3CNC4)sc2C1 [Example 244, cyclopentyl 2-(3,8-diazabicyclo[3.2.1]octan-8-yl)-6,7-dihydrothiazolo[5,4-c]pyridine-5(4H)-carboxylate]			40	6
O=C(CC1CCCC1)N1Cc2sc(N3C4CCC3CNC4)nc2C2(CCOCC2)C1 [Example 266, 1-(2′-(3,8-diazabicyclo[3.2.1]octan-8-yl)-2,3,5,6-tetrahydro-4′H-spiro[pyran-4,7′-thiazolo[5,4-c]pyridin]-5′(6′H)-yl)-2-cyclopentylethan-1-one]		40		
O=C(CC1CCCC1)N1Cc2sc(N3C4CCC3CNC4)nc2C(F)(F)C1 [Example 270, 1-(2-(3,8-diazabicyclo[3.2.1]octan-8-yl)-7,7-difluoro-6,7-dihydrothiazolo[5,4-c]pyridin-5(4H)-yl)-2-cyclopentylethan-1-one]				2
O=C(CC1CCCC1)N1CCc2nc(N3CCN4CCC[C@@H]4C3)sc2C1 [Example 272, (R)-2-cyclopentyl-1-(2-(hexahydropyrrolo[1,2-a]pyrazin-2(1H)-yl)-6,7-dihydrothiazolo[5,4-c]pyridin-5(4H)-yl)ethan-1-one]				16
CC(C)(C)CC(=O)N1CCc2nc(N3CCNCC3)sc2C1 [Example 274, 3,3-dimethyl-1-(2-(piperazin-1-yl)-6,7-dihydrothiazolo[5,4-c]pyridin-5(4H)-yl) butan-1-one]				14
O=C(CC1CCCC1)N1CCc2nc(N3CCNC[C@@H]3CO)sc2C1 [Example 275, (R)-2-cyclopentyl-1-(2-(2-(hydroxymethyl)piperazin-1-yl)-6,7-dihydrothiazolo[5,4-c]pyridin-5(4H)-yl)ethan-1-one]				19
O=C(CC1CCCC1)N1CCc2nc(N3CC4CCC3CN4)sc2C1 (stereo not shown) [Example 278, 1-(2-(2,5-diazabicyclo[2.2.2]octan-2-yl)-6,7-dihydrothiazolo[5,4-c]pyridin-5(4H)-yl)-2-cyclopentylethan-1-one]				2
O=C(CC1CCCC1)N1CCc2nc(N3CCNC[C@H]3CO)sc2C1 [Example 284, (S)-2-cyclopentyl-1-(2-(2-(hydroxymethyl)piperazin-1-yl)-6,7-dihydrothiazolo[5,4-c]pyridin-5(4H)-yl)ethan-1-one]		19		
O=S(=O)(Cc1ccc(F)cc1)N1CCc2nc(N3CCNCC3)sc2C1 [Example 287, 5-((4-fluorobenzyl)sulfonyl)-2-(piperazin-1-yl)-4,5,6,7-tetrahydrothiazolo[5,4-c]pyridine]				-3
CCN1CC2CCC(C1)N2c1nc2c(s1)CN(S(=O)(=O)Cc1ccccc1)CC2 [Example 289, 5-(benzylsulfonyl)-2-(3-ethyl-3,8-diazabicyclo[3.2.1]octan-8-yl)-4,5,6,7-tetrahydrothiazolo[5,4-c]pyridine]				-7
CCCN1CC2CCC(C1)N2c1nc2c(s1)CN(C(=O)CC1CCCC1)CC2 [Example 292, 2-cyclopentyl-1-(2-(3-propyl-3,8-diazabicyclo[3.2.1]octan-8-yl)-6,7-dihydrothiazolo[5,4-c]pyridin-5(4H)-yl)ethan-1-one]				0
CCN1CC2CCC(C1)N2c1nc2c(s1)CN(C(=O)N[C@@H]1CCOc3ccccc31)CC2 [Example 295, N—((R)-chroman-4-yl)-2-(3-ethyl-3,8-diazabicyclo[3.2.1]octan-8-yl)-6,7-dihydrothiazolo[5,4-c]pyridine-5(4H)-carboxamide]				-4
O=C(N[C@H]1CCOc2ccccc21)N1CCc2nc(N3CCNCC3)sc2C1 [Example 296, (S)—N-(chroman-4-yl)-2-(piperazin-1-yl)-6,7-dihydrothiazolo[5,4-c]pyridine-5(4H)-carboxamide]				33
CCN1CCN(c2nc3c(s2)CN(C(=O)CC(C)(C)C)CC3)CC1 [Example 299, 1-(2-(4-ethylpiperazin-1-yl)-6,7-dihydrothiazolo[5,4-c]pyridin-5(4H)-yl)-3,3-dimethylbutan-1-one]				3
CN1CC2CCC(C1)N2c1nc2c(s1)CN(C(=O)COc1ccc(F)cc1)CC2 [Example 301, 2-(4-fluorophenoxy)-1-(2-(3-methyl-3,8-diazabicyclo[3.2.1]octan-8-yl)-6,7-dihydrothiazolo[5,4-c]pyridin-5(4H)-yl)ethan-1-one]				-6
Cc1ccc(-c2nc3c(s2)CN(C(=O)CC2CCCC2)CC3)cn1 [Example 305, 2-cyclopentyl-1-(2-(6-methylpyridin-3-yl)-6,7-dihydrothiazolo[5,4-c]pyridin-5(4H)-yl)ethan-1-one]				26
Cc1cncc(-c2nc3c(s2)CN(C(=O)CC2CCCC2)CC3)c1 [Example 306, 2-cyclopentyl-1-(2-(5-methylpyridin-3-yl)-6,7-dihydrothiazolo[5,4-c]pyridin-5(4H)-yl)ethan-1-one]				-3
